Patent US5733719A, “Method of making an assay compound” (priority 1995, dated 1998)
Blank lines part the entries; values can stand above or below the compound they belong to. Numbered stars: 1 amine (or outer) side, 2 acyl side, 3 side chain; on linkers, the order of the positions; unused ones are H or OH. Bridge positions count the residues as written; N and C are the ends. Peptide text beside a SMILES is read from it. I, II: the chains in the order shown. Rhodamine110 = O=C1OC2(c3ccc(N[*:1])cc3Oc3cc(N[*:2])ccc32)c2ccccc21

Columns and labels:
enzyme = assay: Effect of dithioerythritol (DTE) on substrate sensitivity; details: dithioerythritol (DTE) at 1 mM
Source text: Modulators are components used to […] the sensitivity of the enzyme for the leaving group. The modulators speed up or slow down the activity of an enzyme by changing the active site. […] Preferred modulators for particular enzymes are included in Table 1.

Lymphs = assay: Peptidases to distinguish leukemia from non-leukemia, lymphocytes; format: cell-based, human; design: unit not given here
Source text: (§1) Artificial intelligence was used to analyze data of cellular enzyme functions, and determine normal and disease states. Peptidases were used to distinguish leukemia from non-leukemia (output pattern). For input patterns lymphocyte and granulocyte cell types were used with aminopeptidases, cathepsins and dipeptidylpeptidase enzyme activities. In this Example, illustrated in Tables 6A-6C, three normals and three leukemia patients were used as known output patterns for the neural network to learn (in practice, the larger the learning set the more accurate unknown prediction will be). Unknowns were then presented to the learned algorithm as shown in the test case examples. Clinical diagnosis was confirmed by physicians. The trained neural network was able to correctly classify the leukemia from the non-leukemia.

Grans = assay: Peptidases to distinguish leukemia from non-leukemia, granulocytes; format: cell-based, human; design: unit not given here
Source text: as §1

effect of DTE on sensitivity (enzyme): decreases the sensitivity
SMILES: C[C@H](N)C(=O)N[C@@H](C)C(=O)Nc1ccc2c(c1)Oc1cc(NC(=O)[C@H](C)NC(=O)[C@H](C)N)ccc1C21OC(=O)c2ccccc21 [ALA-ALA*]

SMILES: NC(=O)CC[C@H](N)C(=O)N[C@@H](CO)C(=O)Nc1ccc2c(c1)Oc1cc(NC(=O)[C@H](CO)NC(=O)[C@@H](N)CCC(N)=O)ccc1C21OC(=O)c2ccccc21 [QS, (H--L--Gln--Ser)2 Rho 110-2TFA]
enzyme activity (Lymphs; J4 11/21/91 acute leuk.): 0.05
enzyme activity (Lymphs; J4 12/2/91 AL): 0.01
enzyme activity (Lymphs; J4 12/3/91 acute leuk.): 0.06
enzyme activity (Lymphs; J5 11/27/91 AML): 0.07
enzyme activity (Lymphs; J19 11/27/91 CLL): 0.06
enzyme activity (Lymphs; J22 12/2/91 AML): 0.02
enzyme activity (Lymphs; J22 12/9/91 AML): 0.02
enzyme activity (Lymphs; N99° normal): 0.02
enzyme activity (Lymphs; N191 normal): 0.02
enzyme activity (Lymphs; N192 normal): 0.03
enzyme activity (Lymphs; N193 normal): 0.03
enzyme activity (Lymphs; N194 normal): 0.02
enzyme activity (Lymphs; N195 normal): 0.04
enzyme activity (Lymphs; N197 normal): 0.06
enzyme activity (Lymphs; N200 normal): 0.01
enzyme activity (Lymphs; N201 normal): 0.02
enzyme activity (Lymphs; N202 normal): 0.01
enzyme activity (Lymphs; N206 normal): 0.04
enzyme activity (Lymphs; P68 tachycardia): 0.02
enzyme activity (Lymphs; P69 pancreatic CA): 0.31
enzyme activity (Lymphs; P70 cirrhosis/hemobilia): 0.04
enzyme activity (Lymphs; P71 ac. pyelonephritis): 0.05
enzyme activity (Grans; J4 11/21/91 acute leuk.): 0.22
enzyme activity (Grans; J4 12/2/91 AL): 0.44
enzyme activity (Grans; J4 12/3/91 acute leuk.): 0.19
enzyme activity (Grans; J5 11/27/91 AML): 1.24
enzyme activity (Grans; J19 11/27/91 CLL): 1.16
enzyme activity (Grans; J22 12/2/91 AML): 0.10
enzyme activity (Grans; J22 12/9/91 AML): 0.24
enzyme activity (Grans; N99° normal): 0.05
enzyme activity (Grans; N191 normal): 0.19
enzyme activity (Grans; N192 normal): 0.15
enzyme activity (Grans; N193 normal): 0.14
enzyme activity (Grans; N194 normal): 0.07
enzyme activity (Grans; N195 normal): 0.21
enzyme activity (Grans; N197 normal): 0.24
enzyme activity (Grans; N200 normal): 0.06
enzyme activity (Grans; N201 normal): 0.09
enzyme activity (Grans; N202 normal): 0.08
enzyme activity (Grans; N206 normal): 0.27
enzyme activity (Grans; P68 tachycardia): 0.33
enzyme activity (Grans; P69 pancreatic CA): 0.37
enzyme activity (Grans; P70 cirrhosis/hemobilia): 0.19
enzyme activity (Grans; P71 ac. pyelonephritis): 0.51

enzyme activity (Lymphs; J4 11/21/91 acute leuk.): 2.30
enzyme activity (Lymphs; J4 12/2/91 AL): 1.46
enzyme activity (Lymphs; J4 12/3/91 acute leuk.): 1.18
enzyme activity (Lymphs; J5 11/27/91 AML): 1.32
enzyme activity (Lymphs; J19 11/27/91 CLL): 0.50
enzyme activity (Lymphs; J22 12/2/91 AML): 0.99
enzyme activity (Lymphs; J22 12/9/91 AML): 1.02
enzyme activity (Lymphs; N99° normal): 1.86
enzyme activity (Lymphs; N191 normal): 2.14
enzyme activity (Lymphs; N192 normal): 2.12
enzyme activity (Lymphs; N194 normal): 1.82
enzyme activity (Lymphs; N195 normal): 1.90
enzyme activity (Lymphs; N197 normal): 1.96
enzyme activity (Lymphs; N200 normal): 2.39
enzyme activity (Lymphs; N201 normal): 1.88
enzyme activity (Lymphs; N202 normal): 2.49
enzyme activity (Lymphs; N206 normal): 2.89
enzyme activity (Lymphs; P68 tachycardia): 1.90
enzyme activity (Lymphs; P69 pancreatic CA): 2.26
enzyme activity (Lymphs; P70 cirrhosis/hemobilia): 1.89
enzyme activity (Lymphs; P71 ac. pyelonephritis): 1.86
enzyme activity (Grans; J4 11/21/91 acute leuk.): 5.96
enzyme activity (Grans; J4 12/2/91 AL): 2.59
enzyme activity (Grans; J4 12/3/91 acute leuk.): 1.93
enzyme activity (Grans; J5 11/27/91 AML): 2.72
enzyme activity (Grans; J19 11/27/91 CLL): 2.95
enzyme activity (Grans; J22 12/2/91 AML): 2.33
enzyme activity (Grans; J22 12/9/91 AML): 2.51
enzyme activity (Grans; N99° normal): 3.71
enzyme activity (Grans; N191 normal): 4.73
enzyme activity (Grans; N192 normal): 4.62
enzyme activity (Grans; N193 normal): 4.96
enzyme activity (Grans; N194 normal): 3.77
enzyme activity (Grans; N195 normal): 3.74
enzyme activity (Grans; N197 normal): 3.82
enzyme activity (Grans; N200 normal): 4.69
enzyme activity (Grans; N201 normal): 4.23
enzyme activity (Grans; N202 normal): 4.44
enzyme activity (Grans; N206 normal): 5.98
enzyme activity (Grans; P68 tachycardia): 4.63
enzyme activity (Grans; P69 pancreatic CA): 4.21
enzyme activity (Grans; P70 cirrhosis/hemobilia): 4.02
enzyme activity (Grans; P71 ac. pyelonephritis): 4.37
SMILES: C[C@@H](O)[C@H](N)C(=O)N1CCC[C@H]1C(=O)Nc1ccc2c(c1)Oc1cc(NC(=O)[C@@H]3CCCN3C(=O)[C@@H](N)[C@@H](C)O)ccc1C21OC(=O)c2ccccc21 [TP]

effect of DTE on sensitivity (enzyme): decreases the sensitivity
SMILES: C[C@H](N)C(=O)N[C@@H](C)C(=O)N[C@@H](C)C(=O)N[C@@H](C)C(=O)Nc1ccc2c(c1)Oc1cc(NC(=O)[C@H](C)NC(=O)[C@H](C)NC(=O)[C@H](C)NC(=O)[C@H](C)N)ccc1C21OC(=O)c2ccccc21 [Ala-Ala-Ala-Ala, (H--L Ala--Ala--Ala--Ala)2 Rho 110-2TFA] (I: H-AAAA / II: H-AAAA; linker I:C-II:C via Rhodamine110)

SMILES: C[C@H](N)C(=O)Nc1ccc2c(c1)Oc1cc(NC(=O)[C@H](C)N)ccc1C21OC(=O)c2ccccc21 [ALA, (Ala)2 Rho 110]
enzyme activity (Lymphs; J4 11/21/91 acute leuk.): 86.00
enzyme activity (Lymphs; J4 12/2/91 AL): 68.10
enzyme activity (Lymphs; J4 12/3/91 acute leuk.): 74.64
enzyme activity (Lymphs; J5 11/27/91 AML): 92.44
enzyme activity (Lymphs; J19 11/27/91 CLL): 47.78
enzyme activity (Lymphs; J22 12/2/91 AML): 84.42
enzyme activity (Lymphs; J22 12/9/91 AML): 83.48
enzyme activity (Lymphs; N99° normal): 91.07
enzyme activity (Lymphs; N191 normal): 95.72
enzyme activity (Lymphs; N192 normal): 103.31
enzyme activity (Lymphs; N193 normal): 100.50
enzyme activity (Lymphs; N194 normal): 97.02
enzyme activity (Lymphs; N195 normal): 118.81
enzyme activity (Lymphs; N197 normal): 96.36
enzyme activity (Lymphs; N200 normal): 101.38
enzyme activity (Lymphs; N201 normal): 106.72
enzyme activity (Lymphs; N202 normal): 118.37
enzyme activity (Lymphs; N206 normal): 122.71
enzyme activity (Lymphs; P68 tachycardia): 1471.10
enzyme activity (Lymphs; P69 pancreatic CA): 130.34
enzyme activity (Lymphs; P70 cirrhosis/hemobilia): 141.87
enzyme activity (Lymphs; P71 ac. pyelonephritis): 109.26
enzyme activity (Grans; J4 11/21/91 acute leuk.): 193.43
enzyme activity (Grans; J4 12/2/91 AL): 139.53
enzyme activity (Grans; J4 12/3/91 acute leuk.): 138.89
enzyme activity (Grans; J5 11/27/91 AML): 194.85
enzyme activity (Grans; J19 11/27/91 CLL): 143.11
enzyme activity (Grans; J22 12/2/91 AML): 157.12
enzyme activity (Grans; J22 12/9/91 AML): 157.48
enzyme activity (Grans; N99° normal): 157.30
enzyme activity (Grans; N191 normal): 177.32
enzyme activity (Grans; N192 normal): 154.84
enzyme activity (Grans; N193 normal): 178.64
enzyme activity (Grans; N194 normal): 164.00
enzyme activity (Grans; N195 normal): 221.28
enzyme activity (Grans; N197 normal): 188.20
enzyme activity (Grans; N200 normal): 171.06
enzyme activity (Grans; N201 normal): 206.06
enzyme activity (Grans; N202 normal): 201.17
enzyme activity (Grans; N206 normal): 232.57
enzyme activity (Grans; P68 tachycardia): 276.07
enzyme activity (Grans; P69 pancreatic CA): 204.02
enzyme activity (Grans; P70 cirrhosis/hemobilia): 236.23
enzyme activity (Grans; P71 ac. pyelonephritis): 185.37
